Test results reported in patent US20230072683A1, “PYRIDO-PYRIMIDIN DERIVATIVES AND PHARMACEUTICAL COMPOSITION, FOR USE IN PREVENTING OR TREATING PI3 KINASE RELATED DISEASES, COMPRISING SAME AS ACTIVE INGREDIENT” (BORYUNG PHARMACEUTICAL CO., LTD, priority 2019, published 2023).
Read-outs that look alike come from different tables or passages of the source.

Experiments:
[1] = biological target: PI3K-δ (PI3K(p1108/p857) (h)) (Homo sapiens, UniProt O00329); experiment: Evaluation of inhibitory activity against PI3K-δ (HTRF kinase assay); format: biochemical; settings: for inhibition at 0.01 µM: compound concentration 0.01 μM, read-out: EXP_VALUE(% Inhibition) PI3K-δ 0.01 μM; for inhibition at 0.1 µM: read-out: EXP_VALUE(% Inhibition) PI3K-δ 0.1 μM
PI3K-δ (PI3K(p1108/p857) (h)), sequence (O00329 whole entry, the tested form may be a part): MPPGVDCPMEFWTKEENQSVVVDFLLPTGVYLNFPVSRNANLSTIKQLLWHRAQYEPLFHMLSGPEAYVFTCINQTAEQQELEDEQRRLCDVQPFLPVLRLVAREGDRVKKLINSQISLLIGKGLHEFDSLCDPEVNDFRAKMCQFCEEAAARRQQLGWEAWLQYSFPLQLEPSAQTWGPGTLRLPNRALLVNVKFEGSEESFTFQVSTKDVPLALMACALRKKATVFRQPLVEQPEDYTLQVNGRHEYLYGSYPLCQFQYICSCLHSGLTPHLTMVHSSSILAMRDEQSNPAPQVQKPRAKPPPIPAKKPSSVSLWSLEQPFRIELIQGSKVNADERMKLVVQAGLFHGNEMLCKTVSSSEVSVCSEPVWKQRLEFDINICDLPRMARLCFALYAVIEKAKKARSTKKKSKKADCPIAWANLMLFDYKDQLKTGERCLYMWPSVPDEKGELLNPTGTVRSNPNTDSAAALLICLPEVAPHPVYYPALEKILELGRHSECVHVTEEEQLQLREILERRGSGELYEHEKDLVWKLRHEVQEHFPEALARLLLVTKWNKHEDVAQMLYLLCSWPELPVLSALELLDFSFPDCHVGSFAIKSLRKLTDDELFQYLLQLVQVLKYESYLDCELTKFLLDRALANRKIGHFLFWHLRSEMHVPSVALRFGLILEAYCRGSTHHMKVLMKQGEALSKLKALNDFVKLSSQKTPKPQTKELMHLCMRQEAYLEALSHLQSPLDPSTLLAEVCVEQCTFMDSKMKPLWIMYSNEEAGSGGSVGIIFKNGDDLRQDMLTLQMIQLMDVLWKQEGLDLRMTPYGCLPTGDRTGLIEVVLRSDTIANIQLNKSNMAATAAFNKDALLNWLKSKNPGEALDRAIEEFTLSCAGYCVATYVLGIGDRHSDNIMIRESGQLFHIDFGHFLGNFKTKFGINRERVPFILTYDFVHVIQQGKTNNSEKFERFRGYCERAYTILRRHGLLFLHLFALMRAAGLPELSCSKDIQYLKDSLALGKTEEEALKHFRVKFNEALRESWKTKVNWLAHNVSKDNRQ
PI3K-δ (PI3K(p1108/p857) (h)), sequence (P27986 whole entry partner, the tested form may be a part): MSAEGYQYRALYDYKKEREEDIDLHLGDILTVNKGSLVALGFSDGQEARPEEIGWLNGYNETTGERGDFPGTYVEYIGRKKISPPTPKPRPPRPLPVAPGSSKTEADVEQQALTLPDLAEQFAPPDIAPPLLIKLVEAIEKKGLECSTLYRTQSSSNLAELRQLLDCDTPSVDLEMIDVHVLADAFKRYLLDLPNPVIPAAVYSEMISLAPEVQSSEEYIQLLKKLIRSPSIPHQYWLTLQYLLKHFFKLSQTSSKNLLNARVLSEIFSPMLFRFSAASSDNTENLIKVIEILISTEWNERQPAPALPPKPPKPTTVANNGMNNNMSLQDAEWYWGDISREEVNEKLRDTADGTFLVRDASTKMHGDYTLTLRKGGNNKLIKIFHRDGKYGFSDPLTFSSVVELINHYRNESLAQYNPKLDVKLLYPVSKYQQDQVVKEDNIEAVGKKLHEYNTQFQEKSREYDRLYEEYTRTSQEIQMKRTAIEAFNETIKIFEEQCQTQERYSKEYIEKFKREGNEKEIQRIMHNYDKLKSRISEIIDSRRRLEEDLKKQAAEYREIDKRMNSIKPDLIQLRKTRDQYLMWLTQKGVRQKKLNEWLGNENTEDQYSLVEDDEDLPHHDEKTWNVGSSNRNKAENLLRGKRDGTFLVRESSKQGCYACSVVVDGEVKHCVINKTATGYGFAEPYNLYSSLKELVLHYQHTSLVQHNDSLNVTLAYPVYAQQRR
Method in brief: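 HTRF read-out (665/620 nm ratio ×10000) used Eu-labelled anti-GST, GST-tagged GRP1 PH domain and streptavidin-allophycocyanin after EDTA/PIP3 stop.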

DNA-PK(h) = DNA-PK(h) (Homo sapiens, UniProt P78527); experiment: Evaluation of inhibitory activity against DNA-PK (HTRF kinase assay, GST-cMyc-p53 substrate); format: biochemical; settings: for inhibition at 0.01 µM: compound concentration 0.01 μM, read-out: EXP_VALUE(% Inhibition) DNA-PK(h) 0.01 μM; for inhibition at 0.1 µM: read-out: EXP_VALUE(% Inhibition) DNA-PK(h) 0.1 μM
Method in brief: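 p53 Ser15 phosphorylation by human DNA-PK was measured by time-resolved FRET ratio (665/620 nm ×10000) using Eu-labelled anti-phospho-Ser15 and d2 anti-GST antibodies. Substrate GST-cMyc-p53 at 50 μM; Mg/ATP-initiated, 30 min at room temperature, EDTA stop.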

| SMILES | inhibition at 0.01 µM [1] | inhibition at 0.1 µM ([1]; compound concentration 0.1 μM) | inhibition at 0.01 µM (DNA-PK(h)) | inhibition at 0.1 µM (DNA-PK(h); compound concentration 0.1 μM) | inhibition at 0.1 µM ([1]; compound at 0.1 μM) | inhibition at 0.1 µM (DNA-PK(h); compound at 0.1 μM) |
| --- | --- | --- | --- | --- | --- | --- |
| C[C@H](Nc1ncnc2[nH]ccc(=O)c12)c1c(Cl)c2cccc(C#Cc3ccncc3)c2c(=O)n1-c1ccccc1 [Example 306, (S)-4-((1-(4-chloro-1-oxo-2-phenyl-8-(pyridin-4-ylethynyl)-1,2-dihydroisoquinolin-3-yl)ethyl)amino)pyrido[2,3-d]pyrimidin-5(8H)-one] | 57% | 105% | 75% | 95% |  |  |
| COCCOc1cccc2c(Cl)c([C@H](C)Nc3ncnc4[nH]ccc(=O)c34)n(-c3ccccc3)c(=O)c12 [Example 363, (S)-4-((1-(4-chloro-8-(2-methoxyethoxy)-1-oxo-2-phenyl-1,2-dihydroisoquinolin-3-yl)ethyl)amino)pyrido[2,3-d]pyrimidin-5(8H)-one] | 26% | 76% | 35% | 80% |  |  |
| C[C@H](Nc1ncnc2[nH]ccc(=O)c12)c1c(Cl)c2cccc(-c3ccnc(F)c3)c2c(=O)n1-c1ccccc1 [Example 195, (S)-4-((1-(4-chloro-8-(2-fluoropyridin-4-yl)-1-oxo-2-phenyl-1,2-dihydroisoquinolin-3-yl)ethyl)amino)pyrido[2,3-d]pyrimidin-5(8H)-one] | 118% |  | 101% |  |  |  |
| C[C@H](Nc1ncnc2[nH]ccc(=O)c12)c1c(Cl)c2cccc(-c3ccc(C(=O)O)cc3)c2c(=O)n1-c1ccccc1 [Example 166, (S)-4-(4-chloro-1-oxo-3-(1-((5-oxo-5,8-dihydropyrido[2,3-d]pyrimidin-4-yl)amino)ethyl)-2-phenyl-1,2-dihydroisoquinolin-8-yl)benzoic acid] | 59% |  | 67% |  |  |  |
| C[C@H](Nc1ncnc2[nH]ccc(=O)c12)c1c(Cl)c2cccc(-c3cnc(N4CCOCC4)nc3)c2c(=O)n1-c1ccccc1 [Example 174, (S)-4-((1-(4-chloro-8-(2-morpholinopyrimidin-5-yl)-1-oxo-2-phenyl-1,2-dihydroisoquinolin-3-yl)ethyl)amino)pyrido[2,3-d]pyrimidin-5(8H)-one] | 65% |  | 67% |  |  |  |
| C[C@H](Nc1ncnc2[nH]ccc(=O)c12)c1cc2cccc(-c3ccc(C#N)cc3)c2c(=O)n1-c1ccccc1 [Example 23, (S)-4-(1-oxo-3-(1-((5-oxo-5,8-dihydropyrido[2,3-d]pyrimidin-4-yl)amino)ethyl)-2-phenyl-1,2-dihydroisoquinolin-8-yl)benzonitrile] | 82% | 96% | 38% | 85% |  |  |
| C[C@H](Nc1ncnc2[nH]ccc(=O)c12)c1c(Cl)c2cccc(-c3cccc(F)c3F)c2c(=O)n1-c1ccccc1 [Example 129, (S)-4-((1-(4-chloro-8-(2,3-difluorophenyl)-1-oxo-2-phenyl-1,2-dihydroisoquinolin-3-yl)ethyl)amino)pyrido[2,3-d]pyrimidin-5(8H)-one] | 75% | 67% | 56% | 91% |  |  |
| Cc1nc(-c2ccc(-c3cccc4c(Cl)c([C@H](C)Nc5ncnc6[nH]ccc(=O)c56)n(-c5ccccc5)c(=O)c34)cc2)no1 [Example 160, (S)-4-((1-(4-chloro-8-(4-(5-methyl-1,2,4-oxadiazol-3-yl)phenyl)-1-oxo-2-phenyl-1,2-dihydroisoquinolin-3-yl)ethyl)amino)pyrido[2,3-d]pyrimidin-5(8H)-one] | 94% |  | 74% |  |  |  |
| COc1cncc(-c2cccc3c(Cl)c([C@H](C)Nc4ncnc5[nH]ccc(=O)c45)n(-c4ccccc4)c(=O)c23)n1 [Example 204, (S)-4-((1-(4-chloro-8-(6-methoxypyrazin-2-yl)-1-oxo-2-phenyl-1,2-dihydroisoquinolin-3-yl)ethyl)amino)pyrido[2,3-d]pyrimidin-5(8H)-one] | 73% |  | 66% |  |  |  |
| C[C@H](Nc1ncnc2[nH]ccc(=O)c12)c1c(Cl)c2cccc(Oc3ccncc3)c2c(=O)n1-c1ccccc1 [Example 428, (S)-4-((1-(4-chloro-1-oxo-2-phenyl-8-(pyridin-4-yloxy)-1,2-dihydroisoquinolin-3-yl)ethyl)amino)pyrido[2,3-d]pyrimidin-5(8H)-one] |  |  |  |  | 86% | 13% |
| C[C@H](Nc1ncnc2[nH]ccc(=O)c12)c1c(Cl)c2cccc(N3CC4CC=CCC4C3)c2c(=O)n1-c1ccccc1 (stereo partly drawn) [Example 8, 4-(((1S)-1-(4-chloro-1-oxo-2-phenyl-8-(3a, 4,7,7a-tetrahydro-1H-isoindol-2 (3H)-yl)-1,2-dihydroisoquinolin-3-yl)ethyl)amino)pyrido[2,3-d]pyrimidin-5(8H)-one] | 36% | 76% | 12% | 28% |  |  |
| C[C@H](Nc1ncnc2[nH]ccc(=O)c12)c1c(Cl)c2cccc(C#Cc3cccs3)c2c(=O)n1-c1ccccc1 [Example 304, (S)-4-((1-(4-chloro-1-oxo-2-phenyl-8-(thiophen-2-ylethynyl)-1,2-dihydroisoquinolin-3-yl)ethyl)amino)pyrido[2,3-d]pyrimidin-5(8H)-one] | 71% | 101% | 27% | 71% |  |  |
| C[C@H](Nc1ncnc2[nH]ccc(=O)c12)c1c(Cl)c2cccc(S(C)(=N)=O)c2c(=O)n1-c1ccccc1 (stereo partly drawn) [Example 425, 4-(((1S)-1-(4-chloro-8-(S-methylsulfonimidoyl)-1-oxo-2-phenyl-1,2-dihydroisoquinolin-3-yl)ethyl)amino)pyrido[2,3-d]pyrimidin-5(8H)-one] |  |  |  |  | 86% | 16% |
| C[C@H](Nc1ncnc2[nH]ccc(=O)c12)c1c(Cl)c2cccc(-c3ccnc(N4CCOCC4)c3)c2c(=O)n1-c1ccccc1 [Example 190, (S)-4-((1-(4-chloro-8-(2-morpholinopyridin-4-yl)-1-oxo-2-phenyl-1,2-dihydroisoquinolin-3-yl)ethyl)amino)pyrido[2,3-d]pyrimidin-5(8H)-one] | 87% |  | 85% |  |  |  |
| C[C@H](Nc1ncnc2[nH]ccc(=O)c12)c1c(Cl)c2cccc(-c3ccc4ncccc4c3)c2c(=O)n1-c1ccccc1 [Example 121, (S)-4-((1-(4-chloro-1-oxo-2-phenyl-8-(quinolin-6-yl)-1,2-dihydroisoquinolin-3-yl)ethyl)amino)pyrido[2,3-d]pyrimidin-5(8H)-one] | 84% | 95% | 76% | 98% |  |  |
| C[C@H](Nc1ncnc2[nH]ccc(=O)c12)c1c(Cl)c2cccc(-c3cnc(C4CCC4)nc3)c2c(=O)n1-c1ccccc1 [Example 54, (S)-4-((1-(4-chloro-8-(2-cyclobutylpyrimidin-5-yl)-1-oxo-2-phenyl-1,2-dihydroisoquinolin-3-yl)ethyl)amino)pyrido[2,3-d]pyrimidin-5(8H)-one] | 55% |  | 42% |  |  |  |
| C[C@H](Nc1ncnc2[nH]ccc(=O)c12)c1c(Cl)c2cccc(-c3cc4ccccc4[nH]3)c2c(=O)n1-c1ccccc1 [Example 380, (S)-4-((1-(4-chloro-8-(1H-indol-2-yl)-1-oxo-2-phenyl-1,2-dihydroisoquinolin-3-yl)ethyl)amino)pyrido[2,3-d]pyrimidin-5(8H)-one] |  |  |  |  | 76% | 19% |
| CCOc1ncc(-c2cccc3c(Cl)c([C@H](C)Nc4ncnc5[nH]ccc(=O)c45)n(-c4ccccc4)c(=O)c23)cn1 [Example 188, (S)-4-((1-(4-chloro-8-(2-ethoxypyrimidin-5-yl)-1-oxo-2-phenyl-1,2-dihydroisoquinolin-3-yl)ethyl)amino)pyrido[2,3-d]pyrimidin-5(8H)-one] | 101% |  | 67% |  |  |  |
| CC(=O)c1ncc(-c2cccc3c(Cl)c([C@H](C)Nc4ncnc5[nH]ccc(=O)c45)n(-c4ccccc4)c(=O)c23)cn1 [Example 403, (S)-4-((1-(8-(2-acetylpyrimidin-5-yl)-4-chloro-1-oxo-2-phenyl-1,2-dihydroisoquinolin-3-yl)ethyl)amino)pyrido[2,3-d]pyrimidin-5(8H)-one] |  |  |  |  | 80% | 46% |
| C[C@H](Nc1ncnc2[nH]ccc(=O)c12)c1c(Cl)c2cccc(-c3ccc(OCC4CC4)nc3)c2c(=O)n1-c1ccccc1 [Example 163, (S)-4-((1-(4-chloro-8-(6-(cyclopropylmethoxy)pyridin-3-yl)-1-oxo-2-phenyl-1,2-dihydroisoquinolin-3-yl)ethyl)amino)pyrido[2,3-d]pyrimidin-5(8H)-one] | 70% |  | 45% |  |  |  |
| C[C@H](Nc1ncnc2[nH]ccc(=O)c12)c1c(Cl)c2cccc(-c3ccc(N4CCOCC4)nc3)c2c(=O)n1-c1ccccc1 [Example 175, (S)-4-((1-(4-chloro-8-(6-morpholinopyridin-3-yl)-1-oxo-2-phenyl-1,2-dihydroisoquinolin-3-yl)ethyl)amino)pyrido[2,3-d]pyrimidin-5(8H)-one] | 70% |  | 80% |  |  |  |
